One experiment deals with SRC (Homo sapiens, UniProt P12931). As to the kind of experiment: SRC Biochemical Assay Protocol (microfluidic mobility shift assay, FLPeptide4 substrate). Put shortly: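 Recombinant SRC (0.26 nM) preincubated 30 min at RT with compound (0.0017–100 μM) and 1.5 μM FLPeptide4, then 50 μM ATP added; 90 min reaction in HEPES pH 7.4, 10 mM MgCl2, 1% DMSO, EDTA-quenched. Phosphopeptide quantified by microfluidic mobility shift; IC50 from 4-parameter logistic fit.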

A further experiment relates to RBE cells. As to the kind of experiment: Cell Viability Protocol (CellTiterGlo), RBE cells. The conditions noted are these: RBE or SNU-1079 cells, 72 or 120 hour, cell line and time not given. Format: cell-based. As to the method: RBE or SNU-1079 cells were cultured in T-75 or T-175 flasks at 37° C., 5% CO2, 95% relative humidity in RPMI 1640 medium with 10% FBS and 1% Penicillin/Streptomycin (media) and detached with 0.25% trypsin/EDTA at 80-90% confluency. Cells were then seeded in 40 μL media per well in 384-well flat-bottom polystyrene microplates (Corning Cat. No. 3570) at a seeding density of 1200 cells/well and incubated for 24 hours at 37° C. with 5% CO2, 95% relative humidity. On the next day, test compounds were prepared in 10 mM DMSO stock solution and diluted to the indicated concentrations in a 384-well compound source plate. DMSO was employed as a vehicle control. Compounds (40 nL) were transferred to 384-well cell culture plate(s) using the liquid handler Echo550. Plates were incubated at 37° C. with 5% CO2 for 72 hour or 120 hour (as indicated). CellTiterGlo reagent was warmed to 37° C. and added into each well (40 μL per well). Plates were incubated at room temperature for 30 min followed by reading on the EnSpire or EnVision plate reader. Relative viability (% remaining activity) was calculated relative to DMSO control and IC50 values were obtained from dose-response data fitted to a 4-parameter curve.
In general terms: ATP-based viability assays read luminescence as a measure of living cells.

Sequence of SRC (P12931 whole entry, species assumed): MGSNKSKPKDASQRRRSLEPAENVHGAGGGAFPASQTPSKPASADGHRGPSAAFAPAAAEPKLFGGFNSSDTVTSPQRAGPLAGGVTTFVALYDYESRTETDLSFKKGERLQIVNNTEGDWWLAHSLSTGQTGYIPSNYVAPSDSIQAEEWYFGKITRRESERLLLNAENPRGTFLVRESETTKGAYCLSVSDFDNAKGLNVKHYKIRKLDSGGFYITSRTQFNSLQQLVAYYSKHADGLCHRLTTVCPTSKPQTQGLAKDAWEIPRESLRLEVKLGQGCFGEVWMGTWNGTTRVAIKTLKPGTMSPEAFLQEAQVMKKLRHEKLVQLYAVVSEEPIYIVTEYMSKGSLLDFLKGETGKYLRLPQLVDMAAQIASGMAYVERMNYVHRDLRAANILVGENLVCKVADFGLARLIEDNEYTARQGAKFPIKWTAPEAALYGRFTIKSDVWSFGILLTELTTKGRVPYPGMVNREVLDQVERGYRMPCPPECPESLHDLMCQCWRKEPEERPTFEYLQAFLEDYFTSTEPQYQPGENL

Consider `C=CC(=O)NCC#Cc1c(-c2ccc(Oc3ccccc3)cc2)c2c(N)ncnc2n1C` [II-162, N-(3-(4-amino-7-methyl-5-(4-phenoxyphenyl)-7H-pyrrolo[2,3-d]pyrimidin-6-yl)prop-2-yn-1-yl)acrylamide], for which the IC50 at SRC and in the experiment on RBE cells was 0.01 to 1 µM throughout.

For `CC(C)n1c(C#CC2CCN(S(C)(=O)=O)CC2)c(-c2ccc(Oc3ccccc3)cc2)c2c(N)ncnc21` [II-140, 7-isopropyl-6-((1-(methylsulfonyl)piperidin-4-yl)ethynyl)-5-(4-phenoxyphenyl)-7H-pyrrolo[2,3-d]pyrimidin-4-amine], the IC50 on SRC and with RBE cells was 0.01 to 1 µM each time.

With `C=CC(=O)N1CCC(C#Cc2c(-c3ccc(Oc4ccccc4)cc3)c3c(N)ncnc3n2C(C)C)(OC)CC1` [Example I-35], the half-inhibitory concentration (IC50) on SRC and in the experiment on RBE cells was 0.01 to 1 µM throughout.

For `C=CC(=O)N1CCC(C#Cc2c(-c3ccc(Oc4ccccc4)cc3)c3c(N)ncnc3n2C2CC(O)C2)CC1` (centres unmarked) [Example I-69], the 50% inhibitory concentration (IC50) on SRC and in the experiment with RBE cells was 0.01 to 1 µM each time.

`CC(C)n1c(C#CC2CCN(CCO)CC2)c(-c2ccc(Oc3ccccc3)cc2)c2c(N)ncnc21` [II-147, 2-(4-((4-amino-7-isopropyl-5-(4-phenoxyphenyl)-7H-pyrrolo[2,3-d]pyrimidin-6-yl)ethynyl)piperidin-1-yl)ethanol]: the figures for the IC50 on SRC and with RBE cells were not above 0.01 µM and 0.01 to 1 µM, respectively.

`COc1cc(-c2c(C#C[C@@H]3[C@H]4CN(C(=O)/C=C/CN5CCC(F)C5)C[C@@H]34)n(C)c3ncnc(N)c23)ccc1Oc1ccccn1` (some centres unmarked) [II-47]: the half-inhibitory concentration (IC50) on SRC and with RBE cells was 0.01 to 1 µM in each case.

As to `COCCN(C)C/C=C/C(=O)N1C[C@@H]2[C@@H](C#Cc3c(-c4ccc(Oc5ccccn5)c(OC)c4)c4c(N)ncnc4n3C)[C@@H]2C1` [II-231, (E)-1-((1R,5S,6s)-6-((4-amino-5-(3-methoxy-4-(pyridin-2-yloxy)phenyl)-7-methyl-7H-pyrrolo[2,3-d]pyrimidin-6-yl)ethynyl)-3-azabicyclo[3.1.0]hexan-3-yl)-4-((2-methoxyethyl) (methyl)amino) but-2-en-1-one], the IC50 at SRC and in the experiment with RBE cells was 0.01 to 1 µM throughout.

With `C=CC(=O)N1CCC(O)(C#Cc2c(-c3ccc(Oc4ccccc4)cc3)c3c(N)ncnc3n2C)CC1` [Example I-63], the concentration for half-maximal inhibition (IC50) on SRC and in the experiment on RBE cells was 0.01 to 1 µM in each case.

Turning to `C=CC(=O)N1CCC(O)(C#Cc2c(-c3ccc(Oc4ccccc4F)cc3)c3c(N)ncnc3n2C)CC1` [Example I-66], the IC50 on SRC and with RBE cells was 0.01 to 1 µM in each case.

In the case of `CN(C)C/C=C/C(=O)N1CCC(O)(C#Cc2c(-c3ccc(Oc4ccccc4)cc3)c3c(N)ncnc3n2C2CCOC2)CC1` (centres unmarked) [Example I-68], the 50% inhibitory concentration (IC50) at SRC and with RBE cells was 0.01 to 1 µM each time.

In the case of `Cn1c(C#C[C@@H]2[C@H]3CN(C(=O)/C=C/CN4CCC(F)C4)C[C@@H]23)c(-c2ccc(Oc3ccccc3)cc2)c2c(N)ncnc21` (stereo partly drawn) [II-225, (E)-1-((1R,5S,6s)-6-((4-amino-7-methyl-5-(4-phenoxyphenyl)-7H-pyrrolo[2,3-d]pyrimidin-6-yl)ethynyl)-3-azabicyclo[3.1.0]hexan-3-yl)-4-(3-fluoropyrrolidin-1-yl)but-2-en-1-one], the IC50 at SRC and in the experiment with RBE cells was 0.01 to 1 µM throughout.

Consider `CC(CO)N1CCC(C#Cc2c(-c3ccc(Oc4ccccc4)cc3)c3c(N)ncnc3n2C(C)C)CC1` (centres unmarked) [II-146, 2-(4-((4-amino-7-isopropyl-5-(4-phenoxyphenyl)-7H-pyrrolo[2,3-d]pyrimidin-6-yl)ethynyl)piperidin-1-yl)propan-1-ol], for which the figures for the half-inhibitory concentration (IC50) at SRC and in the experiment with RBE cells were not above 0.01 µM and 0.01 to 1 µM, respectively.

Turning to `C=CC(=O)N1CCC(O)(C#Cc2c(-c3ccc(Oc4ccccc4)cc3)c3c(N)ncnc3n2C2CCOC2)CC1` (centres unmarked) [Example I-70], the concentration for half-maximal inhibition (IC50) at SRC and with RBE cells was not above 0.01 µM throughout.

Take `C=CC(=O)N1CCC(C#Cc2c(-c3ccc(Oc4ccccc4)cc3)c3c(N)ncnc3n2C2CCOCC2)CC1` [Example I-41, 1-(4-((4-amino-5-(4-phenoxyphenyl)-7-(tetrahydro-2H-pyran-4-yl)-7H-pyrrolo[2,3-d]pyrimidin-6-yl)ethynyl)piperidin-1-yl)prop-2-en-1-one]: the concentration for half-maximal inhibition (IC50) on SRC and in the experiment on RBE cells was 0.01 to 1 µM throughout.

Turning to `C=CC(=O)N1CCC(C#Cc2c(-c3ccc(Oc4ccccc4)cc3)c3c(N)ncnc3n2C(C)c2noc(COC)n2)CC1` (centres unmarked) [Example I-58], the 50% inhibitory concentration (IC50) on SRC and in the experiment with RBE cells was 0.01 to 1 µM in each case.

For the compound `C=CC(=O)N1CCC(C#Cc2c(-c3cnc(Oc4ccccc4)cn3)c3c(N)ncnc3n2C(C)C)CC1` [Example I-65], the half-inhibitory concentration (IC50) at SRC and in the experiment with RBE cells was 0.01 to 1 µM throughout.

`COCCN(C)C/C=C/C(=O)N1C[C@@H]2[C@@H](C#Cc3c(-c4ccc(Oc5ccccc5)cc4)c4c(N)ncnc4n3C)[C@@H]2C1` [II-224, (E)-1-((1R,5S,6s)-6-((4-amino-7-methyl-5-(4-phenoxyphenyl)-7H-pyrrolo[2,3-d]pyrimidin-6-yl)ethynyl)-3-azabicyclo[3.1.0]hexan-3-yl)-4-((2-methoxyethyl) (methyl)amino)but-2-en-1-one]: the IC50 at SRC and with RBE cells was 0.01 to 1 µM in each case.

Consider `CN(C)C/C=C/C(=O)N1CC(C#Cc2c(-c3ccc(Oc4ccccc4)cc3)c3c(N)ncnc3n2C2CCOC2)C1` (centres unmarked) [Example I-67], for which the IC50 at SRC and in the experiment on RBE cells was 0.01 to 1 µM in each case.

As to `CC(C)n1c(C#CC2CCC(C(=O)O)CC2)c(-c2ccc(Oc3ccccc3)cc2)c2c(N)ncnc21` (centres unmarked) [II-138, 4-((4-amino-7-isopropyl-5-(4-phenoxyphenyl)-7H-pyrrolo[2,3-d]pyrimidin-6-yl)ethynyl) cyclohexanecarboxylic acid], the results for the IC50 on SRC and in the experiment on RBE cells were not above 0.01 µM and 0.01 to 1 µM, respectively.

Turning to `C=CC(=O)N1C[C@@H]2[C@@H](C#Cc3c(Br)c4c(N)ncnc4n3C(C)C)[C@@H]2C1` [III-5], the IC50 on SRC and in the experiment on RBE cells was 1 to 10 µM throughout.

Turning to `C=CC(=O)N1CCC(C#Cc2c(-c3ccc(Oc4ccccc4)cc3)c3c(N)ncnc3n2C(C)C)CC1` [Example I-8, 1-(4-((4-amino-7-isopropyl-5-(4-phenoxyphenyl)-7H-pyrrolo[2,3-d]pyrimidin-6-yl)ethynyl)piperidin-1-yl)prop-2-en-1-one], the IC50 at SRC and in the experiment with RBE cells was 0.01 to 1 µM each time.

Take `CC(=O)N1CCC(C#Cc2c(-c3ccc(Oc4ccccc4)cc3)c3c(N)ncnc3n2C(C)C)CC1` [II-139, 1-(4-((4-amino-7-isopropyl-5-(4-phenoxyphenyl)-7H-pyrrolo[2,3-d]pyrimidin-6-yl)ethynyl)piperidin-1-yl)ethanone]: the IC50 on SRC and in the experiment on RBE cells was 0.01 to 1 µM throughout.

By IC50 is commonly meant the concentration at which inhibition is half-maximal.

Values taken from patent publication US20250154154A1 (Relay Binney Street, 2nd Floor, priority 2020, published 2025).
